Holding throughout (type): cell-based
In one assay the test system is A431. As to the kind of experiment: A431 growth. To be noted: Homo sapiens, A-431, A431 cells.
The target in another assay is EGFR (Homo sapiens, UniProt P00533). The experiment in a line: EGF-induced BrdU incorporation assay. The arrangement: expressed in transfected cells; host or cells: 3T3. To be noted: 3T3 cells expressing human EGF-R, EGF 2 nM, read-out: BrdU DNA syn. EGFr IC50. As to the method:
(§1) The cellular/biologic assays described herein measure the amount of DNA made in response to activation of a test kinase, which is a general measure of a proliferative response. The general procedure for this assay is as follows: a compound is introduced to cells expressing the test kinase, either naturally or recombinantly, for some period of time after which, if the test kinase is a receptor, a ligand known to activate the receptor is added. After incubation at least overnight, a DNA labeling reagent such as Bromodeoxy-uridine (BrdU) or 3H-thymidine is added. The amount of labeled DNA is detected with either an anti-BrdU antibody or by measuring radioactivity and is compared to control cells not contacted with a test compound.
EGF-Induced BrdU Incorporation Assay
(8) 3T3 cell line genetically engineered to express human EGF-R.
(1) Cells are seeded at 8000 cells/well in 10% CS, 2 mM Gin in DMEM, in a 96 well plate. Cells are incubated overnight at 37° C. in 5% CO2.
(§2) (2) After 24 hours, the cells are washed with PBS, and then are serum starved in serum free medium (0% CS DMEM with 0.1% BSA) for 24 hours.
(3) On day 3, ligand (EGF, 2 nM, prepared in DMEM with 0.1%/BSA) and test compounds are added to the cells simultaneously. The negative control wells receive serum free DMEM with 0.1% BSA only; the positive control cells receive the ligand (EGF) but no test compound. Test compounds are prepared in serum free DMEM with ligand in a 96 well plate, and serially diluted for 7 test concentrations.
(§3) (4) After 20 hours of ligand activation, diluted BrdU labeling reagent (1: 100 in DMEM, 0.1% BSA) is added and the cells are incubated with BrdU (final concentration=10 μM) for 1.5 hours.
(§4) (10) The absorbance of the samples are measured at 410 nm (in “dual wavelength” mode with a filter reading at 490 nm, as a reference wavelength) on a Dynatech ELISA plate reader.
(Incorporation of labelled thymidine or its analogues reports DNA synthesis.)

In another assay the target is T1, Her2 (Homo sapiens, UniProt P04626).
T1 construct: fused on or other part: P00533 (Epidermal growth factor receptor)
T1 sequence (P04626 676-1255 limits assumed): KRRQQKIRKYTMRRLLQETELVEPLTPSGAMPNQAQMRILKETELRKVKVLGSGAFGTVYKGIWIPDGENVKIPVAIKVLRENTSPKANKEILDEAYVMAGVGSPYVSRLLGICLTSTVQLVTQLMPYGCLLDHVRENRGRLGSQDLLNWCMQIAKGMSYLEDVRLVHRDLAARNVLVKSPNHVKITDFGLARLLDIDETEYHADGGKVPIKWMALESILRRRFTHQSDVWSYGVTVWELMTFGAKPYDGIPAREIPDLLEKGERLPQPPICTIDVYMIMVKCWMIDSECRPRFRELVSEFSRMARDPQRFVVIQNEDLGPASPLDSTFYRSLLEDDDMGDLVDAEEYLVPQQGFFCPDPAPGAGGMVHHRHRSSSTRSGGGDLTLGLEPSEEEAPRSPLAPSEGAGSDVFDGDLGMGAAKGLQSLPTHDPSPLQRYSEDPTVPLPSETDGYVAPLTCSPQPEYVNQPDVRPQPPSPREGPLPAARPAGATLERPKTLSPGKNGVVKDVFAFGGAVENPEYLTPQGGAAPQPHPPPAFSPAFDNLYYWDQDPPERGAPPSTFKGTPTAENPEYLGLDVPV
As to the kind of experiment: EGF-induced Her2-driven BrdU incorporation. To be noted: 3T3 cells with EGF-R/Her2 chimeric receptor, EGF 2 nM, read-out: BrdU DNA syn. HER2 IC50. Summed up: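 3T3 cells expressing an EGF-R extracellular/Her2 intracellular chimera were serum-starved 24 h, then given compound (7 concentrations) together with 2 nM EGF. After 20 h, BrdU (final […]) was added for 1.5 h. Incorporation was detected with anti-BrdU antibody, read at 410 nm against 490 nm reference.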

The target of another assay is PDGFR (Homo sapiens, UniProt P09619). The experiment in a line: PDGF-induced BrdU incorporation assay. The arrangement: expressed in transfected cells; host or cells: 3T3. To be noted: 3T3 cells expressing human PDGF-R, PDGF 3.8 nM. The method, then: as §1
Chain of PDGFR (P09619 33-1106): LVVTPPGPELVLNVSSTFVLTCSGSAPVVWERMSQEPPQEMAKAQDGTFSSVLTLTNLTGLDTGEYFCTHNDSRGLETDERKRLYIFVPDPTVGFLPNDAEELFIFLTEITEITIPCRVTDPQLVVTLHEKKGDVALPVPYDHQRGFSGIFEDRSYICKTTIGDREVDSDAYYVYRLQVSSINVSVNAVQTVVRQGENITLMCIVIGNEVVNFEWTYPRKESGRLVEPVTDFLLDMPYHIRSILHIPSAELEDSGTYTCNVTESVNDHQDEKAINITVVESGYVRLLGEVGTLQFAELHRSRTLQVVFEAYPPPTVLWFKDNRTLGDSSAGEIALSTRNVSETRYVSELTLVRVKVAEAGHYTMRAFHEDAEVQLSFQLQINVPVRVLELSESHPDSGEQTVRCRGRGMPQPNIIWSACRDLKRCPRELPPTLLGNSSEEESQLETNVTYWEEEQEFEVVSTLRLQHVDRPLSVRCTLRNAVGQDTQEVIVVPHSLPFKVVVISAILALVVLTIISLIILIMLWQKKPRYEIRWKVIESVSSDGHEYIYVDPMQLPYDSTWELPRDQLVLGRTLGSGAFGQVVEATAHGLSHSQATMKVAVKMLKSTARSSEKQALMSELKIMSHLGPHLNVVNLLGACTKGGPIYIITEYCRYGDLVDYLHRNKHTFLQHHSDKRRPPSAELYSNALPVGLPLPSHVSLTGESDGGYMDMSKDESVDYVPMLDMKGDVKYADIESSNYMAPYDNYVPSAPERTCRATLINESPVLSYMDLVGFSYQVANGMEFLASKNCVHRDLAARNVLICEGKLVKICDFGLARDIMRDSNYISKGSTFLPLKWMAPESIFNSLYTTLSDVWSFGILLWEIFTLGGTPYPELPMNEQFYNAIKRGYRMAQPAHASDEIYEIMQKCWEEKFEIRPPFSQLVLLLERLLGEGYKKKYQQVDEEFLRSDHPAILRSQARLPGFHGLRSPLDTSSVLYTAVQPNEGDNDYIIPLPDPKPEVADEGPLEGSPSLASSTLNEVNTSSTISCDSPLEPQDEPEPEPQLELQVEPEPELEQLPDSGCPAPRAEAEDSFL
PDGF-Induced BrdU Incorporation Assay
(8) 3T3 cell line genetically engineered to express human PDGF-R.
(1) Cells are seeded at 8000 cells/well in DMEM, 10% CS, 2 mM Gln in a 96 well plate. Cells are incubated overnight at 37° C. in 5% CO2.
as §2
(3) On day 3, ligand (PDGF, 3.8 nM, prepared in DMEM with 0.1% BSA) and test compounds are added to the cells simultaneously. The negative control wells receive serum free DMEM with 0.1% BSA only; the positive control cells receive the ligand (PDGF) but no test compound. Test compounds are prepared in serum free DMEM with ligand in a 96 well plate, and serially diluted for 7 test concentrations.
as §3, §4

In another assay the test system is SKOV3. As to the kind of experiment: SKOV3 growth. To be noted: Homo sapiens, SK-OV-3, SKOV3 cells.
[1] abbreviates: Table 7, read-out: BrdU DNA syn. PDGFr IC50.

Like-named read-outs stand apart in the source and are kept apart here. Bounds are passed on as bounds.

Chain of EGFR (P00533 25-1210): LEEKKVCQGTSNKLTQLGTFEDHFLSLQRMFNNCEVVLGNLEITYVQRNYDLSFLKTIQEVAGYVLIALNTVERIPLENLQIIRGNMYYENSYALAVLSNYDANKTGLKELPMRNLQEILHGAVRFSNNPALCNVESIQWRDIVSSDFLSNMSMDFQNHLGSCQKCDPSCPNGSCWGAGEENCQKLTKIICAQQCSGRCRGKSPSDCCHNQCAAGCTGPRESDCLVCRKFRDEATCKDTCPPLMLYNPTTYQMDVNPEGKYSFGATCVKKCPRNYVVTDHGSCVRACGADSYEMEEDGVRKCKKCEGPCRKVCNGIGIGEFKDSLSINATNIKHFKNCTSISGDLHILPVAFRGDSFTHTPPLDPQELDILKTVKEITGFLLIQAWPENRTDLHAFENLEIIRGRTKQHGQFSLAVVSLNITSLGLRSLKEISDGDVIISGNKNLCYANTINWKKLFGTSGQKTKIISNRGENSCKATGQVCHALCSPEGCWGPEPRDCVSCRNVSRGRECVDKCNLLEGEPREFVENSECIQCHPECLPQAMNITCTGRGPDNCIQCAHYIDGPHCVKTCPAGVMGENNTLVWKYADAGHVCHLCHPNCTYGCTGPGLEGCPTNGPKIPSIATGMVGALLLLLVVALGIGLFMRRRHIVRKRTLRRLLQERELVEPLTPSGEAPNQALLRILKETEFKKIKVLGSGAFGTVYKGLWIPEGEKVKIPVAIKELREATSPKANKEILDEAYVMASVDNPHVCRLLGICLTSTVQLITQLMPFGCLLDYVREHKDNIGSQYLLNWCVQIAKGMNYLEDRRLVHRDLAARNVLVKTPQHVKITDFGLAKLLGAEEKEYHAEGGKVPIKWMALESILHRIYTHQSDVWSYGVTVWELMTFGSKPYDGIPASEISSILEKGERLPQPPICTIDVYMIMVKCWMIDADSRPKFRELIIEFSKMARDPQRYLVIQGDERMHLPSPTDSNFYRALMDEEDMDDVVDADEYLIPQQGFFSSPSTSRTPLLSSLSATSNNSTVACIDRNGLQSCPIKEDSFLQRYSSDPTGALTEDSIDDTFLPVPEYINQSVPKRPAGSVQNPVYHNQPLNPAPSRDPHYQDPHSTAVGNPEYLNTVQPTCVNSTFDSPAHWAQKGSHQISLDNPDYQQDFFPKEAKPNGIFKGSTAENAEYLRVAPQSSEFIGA

As to `COc1ccc(-c2ccc3c(c2)NC(=O)C3Cc2[nH]c(C)c(CCCN(C)C)c2C)cc1` (centres unmarked) [AAI-22, 3-[4-(3-Dimethylaminopropyl)-3,5-dimethyl-1H-pyrrol-2-ylmethyl]-6-(4-methoxyphenyl)-1,3-dihydroindol-2-one], the IC50 with A431 (Table 5) was 32.9 µM; at EGFR (Table 5), 27.6 µM; on Her2 (Table 5) it was more than 50 µM; at PDGFR (Table 5, read-out: BrdU DNA syn. PDFGr IC50), 1.15 µM; in the assay with SKOV3 (Table 5), more than 50 µM.

For the compound `CC(C)c1cccc(OCCc2cccc3c2CC(=O)N3)c1` [IN-001, 4-[2-(3-Isopropyl-phenoxy)-ethyl]-1,3-dihydro-indol-2-one], the IC50 in the assay on A431 (Table 7) was 12.3 µM; at EGFR (Table 7) it was 32.5 µM; at Her2 (Table 7), 28.9 µM; on PDGFR (setting [1]) it was 35.2 µM; with SKOV3 (Table 7), 27.8 µM.

Consider `CC(C)c1ccccc1OCCc1cccc2c1CC(=O)N2` [IN-002, 4-[2-(2-Isopropyl-phenoxy)-ethyl]-1,3-dihydro-indol-2-one], for which the IC50 in the assay with A431 (Table 7) is 8.2 µM; at EGFR (Table 7), 41.5 µM; at Her2 (Table 7), 30 µM; on PDGFR (setting [1]), 37.1 µM; in the assay with SKOV3 (Table 7) it was 24.5 µM.

As for `O=C1Cc2c(CCOc3cccc(-c4ccccc4)c3)cccc2N1` [IN-003, 4-[2-(Biphenyl-3-yloxy)-ethyl]-1,3-dihydro-indol-2-one], the IC50 stood at 8.7 µM with A431 (Table 7); 29 µM at EGFR (Table 7); 12.1 µM at Her2 (Table 7); 22 µM at PDGFR (setting [1]); 17.8 µM in the assay with SKOV3 (Table 7).

`O=C1Nc2cccc(CCO)c2/C1=C\c1ccc(Br)cc1` [IN-004, 3-(4-Bromo-benzylidene)-4-(2-hydroxy-ethyl)-1,3-dihydro-indol-2-one]: the IC50 in the assay on A431 (Table 7) is 1.1 µM; at EGFR (Table 7), 4.7 µM; at Her2 (Table 7), 3.6 µM; on PDGFR (setting [1]), 3.3 µM; in the assay on SKOV3 (Table 7), 2.9 µM.

Take `Cc1cccc(/C=C2\C(=O)Nc3cccc(CCO)c32)n1` [IN-006]: the IC50 in the assay with A431 (Table 7) is 6 µM; on EGFR (Table 7), 11.1 µM; on Her2 (Table 7), 6.6 µM; on PDGFR (setting [1]), 4.6 µM; in the assay with SKOV3 (Table 7), 5 µM.

As to `COc1ccc(/C=C2\C(=O)Nc3cccc(CCO)c32)cc1-c1cccs1` [IN-008, 4-(2-Hydroxy-ethyl)-3-(4-methoxy-3-thiophen-2-yl-benzylidene)-1,3-dihydro-indol-2-one], the IC50 in the assay with A431 (Table 7) worked out at 2.5 µM; at EGFR (Table 7) it was 31.3 µM; at Her2 (Table 7) it was 2.3 µM; at PDGFR (setting [1]), 5.5 µM; in the assay with SKOV3 (Table 7), 1.5 µM.

The term IC50 denotes the midpoint of a concentration-inhibition curve.

These data come from US6689806B1, “Indolinone compounds as kinase inhibitors” (Sugen, Inc., priority 1999, dated 2004).
